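A five-concentration, 48-hour dose response in 96-well plates underlies each endpoint, interpolated linearly between surrounding concentrations. At the GI50, growth is halved. Definition used: TGI = concentration required for complete inhibition of growth.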
Experiments:
Assay in all cases: growth of human tumour cells (NCI), 48 h
MOLT-4 leukemia = tested on: MOLT-4 leukemia
NCI-H226 lung = tested on: NCI-H226 lung
NCI-H23 lung = tested on: NCI-H23 lung
NCI-H522 lung = tested on: NCI-H522 lung
OVCAR-3 ovarian = tested on: OVCAR-3 ovarian
OVCAR-4 ovarian = tested on: OVCAR-4 ovarian
OVCAR-5 ovarian = tested on: OVCAR-5 ovarian
OVCAR-8 ovarian = tested on: OVCAR-8 ovarian
PC-3 prostate = tested on: PC-3 prostate
RPMI-8226 leukemia = tested on: RPMI-8226 leukemia
RXF 393 renal = tested on: RXF 393 renal
SF-268 CNS = tested on: SF-268 CNS
SF-295 CNS = tested on: SF-295 CNS
SF-539 CNS = tested on: SF-539 CNS
SK-MEL-2 melanoma = tested on: SK-MEL-2 melanoma
SK-MEL-28 melanoma = tested on: SK-MEL-28 melanoma
SK-MEL-5 melanoma = tested on: SK-MEL-5 melanoma
SK-OV-3 ovarian = tested on: SK-OV-3 ovarian
SN12C renal = tested on: SN12C renal
SNB-19 CNS = tested on: SNB-19 CNS
SR leukemia = tested on: SR leukemia
T-47D breast = tested on: T-47D breast
TK-10 renal = tested on: TK-10 renal
UACC-257 melanoma = tested on: UACC-257 melanoma
UACC-62 melanoma = tested on: UACC-62 melanoma
UO-31 renal = tested on: UO-31 renal

Q: Which results are given for `COc1ccc2[nH]cc(-c3cc4nc(-c5cn(C)c6ncccc56)cc(N)n4n3)c2c1`?
A: TGI (MOLT-4 leukemia): > 100 µM; GI50 (NCI-H226 lung): 20.4 µM; TGI (NCI-H226 lung): 57.2 µM; GI50 (NCI-H23 lung): 6.29 µM; TGI (NCI-H23 lung): 24.7 µM; GI50 (NCI-H522 lung): 4.48 µM; TGI (NCI-H522 lung): > 100 µM; GI50 (OVCAR-3 ovarian): 12.5 µM; TGI (OVCAR-3 ovarian): > 100 µM; GI50 (OVCAR-4 ovarian): 2.06 µM; TGI (OVCAR-4 ovarian): 5.15 µM; GI50 (OVCAR-5 ovarian): 4.66 µM; TGI (OVCAR-5 ovarian): 19.2 µM; GI50 (OVCAR-8 ovarian): 4.93 µM; TGI (OVCAR-8 ovarian): > 100 µM; GI50 (PC-3 prostate): 6.67 µM; TGI (PC-3 prostate): > 100 µM; GI50 (RPMI-8226 leukemia): 3.05 µM; TGI (RPMI-8226 leukemia): > 100 µM; GI50 (RXF 393 renal): 1.67 µM; TGI (RXF 393 renal): 3.27 µM; GI50 (SF-268 CNS): 13.5 µM; TGI (SF-268 CNS): > 100 µM; GI50 (SF-295 CNS): 1.68 µM; TGI (SF-295 CNS): 3.26 µM; GI50 (SF-539 CNS): 1.63 µM; TGI (SF-539 CNS): 3.05 µM; GI50 (SK-MEL-2 melanoma): 19.3 µM; TGI (SK-MEL-2 melanoma): 53.2 µM; GI50 (SK-MEL-28 melanoma): 10.8 µM; TGI (SK-MEL-28 melanoma): 23.4 µM; GI50 (SK-MEL-5 melanoma): 6.18 µM; TGI (SK-MEL-5 melanoma): 19.3 µM; GI50 (SK-OV-3 ovarian): 52.8 µM; TGI (SK-OV-3 ovarian): > 100 µM; GI50 (SN12C renal): 6.93 µM; TGI (SN12C renal): 23.8 µM; GI50 (SNB-19 CNS): 8.67 µM; TGI (SNB-19 CNS): 32.2 µM; GI50 (SR leukemia): 2.55 µM; TGI (SR leukemia): > 100 µM; GI50 (T-47D breast): 5.77 µM; TGI (T-47D breast): 90.1 µM; GI50 (TK-10 renal): 19.1 µM; TGI (TK-10 renal): > 100 µM; GI50 (UACC-257 melanoma): 21.5 µM; TGI (UACC-257 melanoma): 55.4 µM; GI50 (UACC-62 melanoma): 14.2 µM; TGI (UACC-62 melanoma): 27.8 µM; GI50 (UO-31 renal): 3.59 µM; TGI (UO-31 renal): 17.5 µM

Source: PubChem BioAssay (NCI)
